PMC3291806 (2011)

Target: gamma-aminobutyric acid type A (GABAA) receptor α1(L264T)β2γ2L (Homo sapiens, UniProt P14867+P47870, P14867:L291T)
Experiment: cell-based

gamma-aminobutyric acid type A (GABAA) receptor α1(L264T)β2γ2L, sequence (P14867 28-456 L291T): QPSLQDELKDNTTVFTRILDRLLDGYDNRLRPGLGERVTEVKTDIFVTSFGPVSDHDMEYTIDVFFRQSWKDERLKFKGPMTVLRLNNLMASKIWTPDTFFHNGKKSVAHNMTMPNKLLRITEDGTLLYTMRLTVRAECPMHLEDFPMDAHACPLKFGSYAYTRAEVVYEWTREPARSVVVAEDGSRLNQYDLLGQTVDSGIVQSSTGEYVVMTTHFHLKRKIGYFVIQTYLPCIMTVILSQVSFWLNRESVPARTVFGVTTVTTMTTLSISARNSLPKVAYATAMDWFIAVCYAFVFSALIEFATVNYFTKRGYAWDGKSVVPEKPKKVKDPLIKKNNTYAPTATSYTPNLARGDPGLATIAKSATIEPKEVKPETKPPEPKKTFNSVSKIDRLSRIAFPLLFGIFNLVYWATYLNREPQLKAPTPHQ
gamma-aminobutyric acid type A (GABAA) receptor α1(L264T)β2γ2L, sequence (P47870 26-512): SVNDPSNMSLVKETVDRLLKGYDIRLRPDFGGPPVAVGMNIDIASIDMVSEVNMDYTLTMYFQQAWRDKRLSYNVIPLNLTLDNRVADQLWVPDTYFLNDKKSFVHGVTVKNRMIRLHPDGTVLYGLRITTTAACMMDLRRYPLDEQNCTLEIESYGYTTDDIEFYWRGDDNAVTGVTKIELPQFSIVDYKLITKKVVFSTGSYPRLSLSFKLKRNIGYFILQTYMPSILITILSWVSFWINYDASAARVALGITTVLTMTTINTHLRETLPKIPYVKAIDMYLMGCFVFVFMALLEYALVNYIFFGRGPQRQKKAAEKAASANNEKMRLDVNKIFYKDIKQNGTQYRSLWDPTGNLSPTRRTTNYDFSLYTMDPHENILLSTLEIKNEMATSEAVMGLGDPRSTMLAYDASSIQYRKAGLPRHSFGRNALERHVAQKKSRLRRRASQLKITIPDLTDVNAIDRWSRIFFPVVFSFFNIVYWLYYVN
gamma-aminobutyric acid type A (GABAA) receptor α1(L264T)β2γ2L, sequence (P18507 40-475 partner): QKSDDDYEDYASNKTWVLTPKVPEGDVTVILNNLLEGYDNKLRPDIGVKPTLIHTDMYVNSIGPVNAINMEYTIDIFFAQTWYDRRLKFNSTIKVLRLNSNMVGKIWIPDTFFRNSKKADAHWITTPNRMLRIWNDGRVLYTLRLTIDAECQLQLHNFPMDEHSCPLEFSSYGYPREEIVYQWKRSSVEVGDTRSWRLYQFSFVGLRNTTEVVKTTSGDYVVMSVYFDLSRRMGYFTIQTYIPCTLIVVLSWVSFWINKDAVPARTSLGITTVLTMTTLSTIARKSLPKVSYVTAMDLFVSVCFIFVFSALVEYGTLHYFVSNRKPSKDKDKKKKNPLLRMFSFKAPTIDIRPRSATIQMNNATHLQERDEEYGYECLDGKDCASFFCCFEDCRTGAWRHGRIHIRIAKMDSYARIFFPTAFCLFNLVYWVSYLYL

| Structure (SMILES) | EC50 [mM] |
| --- | --- |
| C[C@H](c1ccccc1)n1cncc1C(=O)OCCC(=O)O [MOC-ECA] | 3.5 ± 0.63 |
| COC(=O)CCOC(=O)c1cncn1[C@H](C)c1ccccc1 [MOC-etomidate, methoxycarbonyl etomidate] | 0.01 ± 0.0025 |
